Assay results reported in ChEMBL document CHEMBL3872258, “Challenges in the development of an M4 PAM in vivo tool compound: The discovery of VU0467154 and unexpected DMPK profiles of close analogs” (Bioorg Med Chem Lett, 2017).

Columns and labels:
[1] = Ratio of total drug level in brain to plasma in Sprague-Dawley rat at 0.20 to 0.25 mg/kg, iv administered through cassette dosing after 0.25 hrs; assay type: ADME, organism-based
[2] = Ratio of unbound concentration in brain to plasma in Sprague-Dawley rat at 0.20 to 0.25 mg/kg, iv administered through cassette dosing after 0.25 hrs; assay type: ADME, organism-based
[3] = molecular target: T1, Muscarinic acetylcholine receptor M4 (Homo sapiens, UniProt P08173); experiment: Positive allosteric modulation of human M4 receptor expressed in CHO cells co-expressing Gqui5 by calcium mobilization assay; assay type: functional, cell-based; settings: read-out: EC50
T1 sequence (P08173 whole entry): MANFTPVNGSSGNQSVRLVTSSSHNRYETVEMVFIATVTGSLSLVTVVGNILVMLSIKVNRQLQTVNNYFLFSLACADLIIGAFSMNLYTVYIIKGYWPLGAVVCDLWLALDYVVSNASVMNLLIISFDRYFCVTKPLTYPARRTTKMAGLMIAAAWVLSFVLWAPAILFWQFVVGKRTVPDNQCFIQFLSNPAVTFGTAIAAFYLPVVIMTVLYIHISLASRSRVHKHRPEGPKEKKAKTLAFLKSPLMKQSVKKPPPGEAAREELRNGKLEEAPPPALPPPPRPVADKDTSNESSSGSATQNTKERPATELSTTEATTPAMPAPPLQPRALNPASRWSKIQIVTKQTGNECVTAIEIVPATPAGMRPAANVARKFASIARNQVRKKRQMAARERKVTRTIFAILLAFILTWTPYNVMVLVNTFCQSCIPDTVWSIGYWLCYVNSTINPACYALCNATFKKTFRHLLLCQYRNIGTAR

[4] = molecular target: T2, Muscarinic acetylcholine receptor M4 (Homo sapiens) (UniProt P08173); experiment: Positive allosteric modulation of human M4 receptor expressed in CHO cells co-expressing Gqui5 by calcium mobilization assay relative to acetylcholine; assay type: functional, cell-based
T2 sequence (whole entry): T1 sequence (P08173 whole entry)

[5] = Intrinsic clearance in rat; assay type: ADME
[6] = Unbound fraction in rat plasma; assay type: ADME, cell-free
[7] = Unbound fraction in human plasma; assay type: ADME, cell-free
[8] = molecular target: T3, Cytochrome P450 1A2 (Homo sapiens, UniProt P05177); experiment: Inhibition of CYP1A2 (unknown origin); assay type: ADME
T3 sequence (P05177 whole entry): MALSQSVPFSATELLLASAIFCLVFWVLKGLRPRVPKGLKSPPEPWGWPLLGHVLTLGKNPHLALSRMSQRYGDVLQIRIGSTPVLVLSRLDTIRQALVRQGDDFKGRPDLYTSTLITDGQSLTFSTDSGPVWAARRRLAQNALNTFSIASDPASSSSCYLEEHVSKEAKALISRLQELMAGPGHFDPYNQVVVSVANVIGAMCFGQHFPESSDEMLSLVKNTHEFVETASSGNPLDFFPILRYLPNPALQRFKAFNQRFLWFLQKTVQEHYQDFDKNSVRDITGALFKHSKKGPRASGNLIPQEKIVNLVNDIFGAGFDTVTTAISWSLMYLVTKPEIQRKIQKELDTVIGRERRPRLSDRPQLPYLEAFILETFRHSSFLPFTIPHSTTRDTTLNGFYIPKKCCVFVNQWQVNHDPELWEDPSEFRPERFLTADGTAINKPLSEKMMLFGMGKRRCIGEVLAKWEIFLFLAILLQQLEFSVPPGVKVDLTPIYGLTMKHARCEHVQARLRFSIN

[9] = molecular target: Cytochrome P450 2C9 (Homo sapiens, UniProt P11712); experiment: Inhibition of CYP2C9 (unknown origin); assay type: ADME
[10] = molecular target: Cytochrome P450 2D6 (Homo sapiens, UniProt P10635); experiment: Inhibition of CYP2D6 (unknown origin); assay type: ADME
[11] = Plasma clearance in Sprague-Dawley rat at 1 mg/kg, iv; assay type: ADME, organism-based
[12] = Half life in Sprague-Dawley rat at 1 mg/kg, iv; assay type: ADME, organism-based; settings: in vivo; for half-life: Sprague-Dawley
[13] = Volume of distribution at steady state in Sprague-Dawley rat at 1 mg/kg, iv; assay type: ADME, organism-based; settings: in vivo; for Vd: Sprague-Dawley, read-out: Vdss
[14] = Ratio of unbound concentration in brain to plasma in Sprague-Dawley rat at 1 mg/kg, ip at 0.25 hrs; assay type: ADME, organism-based
[15] = molecular target: T4, Muscarinic acetylcholine receptor M1 (Homo sapiens, UniProt P11229); experiment: Displacement of [3H]-N-Methylscopolamine from human M1 receptor expressed in CHOK1 cells; assay type: cell-based, CHO-K1
T4 sequence (P11229 whole entry): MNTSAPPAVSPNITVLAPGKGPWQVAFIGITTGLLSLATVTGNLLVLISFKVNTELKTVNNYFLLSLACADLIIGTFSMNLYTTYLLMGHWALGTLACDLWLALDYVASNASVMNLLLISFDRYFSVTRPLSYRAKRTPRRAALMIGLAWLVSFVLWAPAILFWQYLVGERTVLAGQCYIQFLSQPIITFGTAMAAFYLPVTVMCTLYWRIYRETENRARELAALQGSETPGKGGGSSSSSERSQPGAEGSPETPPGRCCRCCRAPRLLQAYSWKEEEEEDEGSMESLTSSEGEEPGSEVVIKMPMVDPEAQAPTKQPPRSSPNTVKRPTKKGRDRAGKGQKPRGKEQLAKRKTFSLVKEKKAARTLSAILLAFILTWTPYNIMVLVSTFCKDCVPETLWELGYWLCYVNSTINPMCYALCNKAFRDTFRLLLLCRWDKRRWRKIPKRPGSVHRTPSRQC

[16] = molecular target: T5, Muscarinic acetylcholine receptor M2 (Homo sapiens, UniProt P08172); experiment: Displacement of [3H]-N-Methylscopolamine from human M2 receptor expressed in CHOK1 cells; assay type: cell-based, CHO-K1
T5 sequence (P08172 whole entry): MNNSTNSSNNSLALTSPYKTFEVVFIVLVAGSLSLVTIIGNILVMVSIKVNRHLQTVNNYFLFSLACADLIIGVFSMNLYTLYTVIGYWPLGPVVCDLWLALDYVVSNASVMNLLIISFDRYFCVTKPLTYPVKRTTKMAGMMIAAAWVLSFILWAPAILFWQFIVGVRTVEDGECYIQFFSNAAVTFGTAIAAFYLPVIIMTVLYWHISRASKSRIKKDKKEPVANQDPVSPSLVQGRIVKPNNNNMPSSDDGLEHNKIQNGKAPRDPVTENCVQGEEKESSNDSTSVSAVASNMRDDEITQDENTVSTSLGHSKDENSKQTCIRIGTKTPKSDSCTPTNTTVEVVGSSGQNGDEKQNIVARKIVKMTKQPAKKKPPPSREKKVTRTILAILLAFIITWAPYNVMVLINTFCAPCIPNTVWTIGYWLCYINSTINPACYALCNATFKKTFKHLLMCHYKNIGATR

[17] = molecular target: Muscarinic acetylcholine receptor M3 (Rattus norvegicus, UniProt P08483); experiment: Binding affinity to rat M3 receptor by radio-ligand binding assay
[18] = molecular target: Sodium-dependent serotonin transporter (Homo sapiens, UniProt P31645); experiment: Displacement of [3H]-Paroxetine from recombinant human SERT expressed in HEK293 cells; assay type: cell-based
Sequence of Sodium-dependent serotonin transporter (P31645 whole entry): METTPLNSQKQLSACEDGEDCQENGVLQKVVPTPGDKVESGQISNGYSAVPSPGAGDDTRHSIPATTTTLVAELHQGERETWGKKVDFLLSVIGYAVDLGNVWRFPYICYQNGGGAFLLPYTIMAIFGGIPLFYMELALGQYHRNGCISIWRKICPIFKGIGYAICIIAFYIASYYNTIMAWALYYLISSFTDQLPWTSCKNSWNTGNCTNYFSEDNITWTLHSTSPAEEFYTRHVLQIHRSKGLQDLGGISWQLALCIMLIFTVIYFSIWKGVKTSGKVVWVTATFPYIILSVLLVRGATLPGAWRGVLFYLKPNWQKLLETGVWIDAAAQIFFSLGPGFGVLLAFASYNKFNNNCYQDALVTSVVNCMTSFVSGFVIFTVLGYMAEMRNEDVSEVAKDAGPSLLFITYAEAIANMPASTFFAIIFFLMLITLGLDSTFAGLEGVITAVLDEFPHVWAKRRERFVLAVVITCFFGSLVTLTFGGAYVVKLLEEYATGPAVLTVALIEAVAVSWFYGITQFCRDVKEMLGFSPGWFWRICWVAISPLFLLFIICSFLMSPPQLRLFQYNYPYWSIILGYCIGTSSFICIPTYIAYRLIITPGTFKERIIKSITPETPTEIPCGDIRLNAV

Sequence of Muscarinic acetylcholine receptor M3 (P08483 whole entry): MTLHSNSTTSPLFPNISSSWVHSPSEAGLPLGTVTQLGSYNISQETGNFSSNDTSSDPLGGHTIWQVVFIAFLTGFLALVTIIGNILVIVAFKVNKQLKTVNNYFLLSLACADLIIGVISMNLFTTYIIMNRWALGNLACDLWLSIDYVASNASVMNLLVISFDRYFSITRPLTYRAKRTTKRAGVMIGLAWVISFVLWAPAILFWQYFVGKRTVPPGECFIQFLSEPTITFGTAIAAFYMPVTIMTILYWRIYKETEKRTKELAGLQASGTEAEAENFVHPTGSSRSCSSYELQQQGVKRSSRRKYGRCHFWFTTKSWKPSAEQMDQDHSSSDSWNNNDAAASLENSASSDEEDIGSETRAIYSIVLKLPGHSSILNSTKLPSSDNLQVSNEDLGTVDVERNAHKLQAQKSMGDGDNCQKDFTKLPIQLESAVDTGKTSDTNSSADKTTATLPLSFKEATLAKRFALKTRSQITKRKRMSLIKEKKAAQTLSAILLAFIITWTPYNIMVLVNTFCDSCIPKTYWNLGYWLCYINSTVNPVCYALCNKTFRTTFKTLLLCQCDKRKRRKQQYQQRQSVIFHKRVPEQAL
Sequence of Cytochrome P450 2C9 (P11712 whole entry): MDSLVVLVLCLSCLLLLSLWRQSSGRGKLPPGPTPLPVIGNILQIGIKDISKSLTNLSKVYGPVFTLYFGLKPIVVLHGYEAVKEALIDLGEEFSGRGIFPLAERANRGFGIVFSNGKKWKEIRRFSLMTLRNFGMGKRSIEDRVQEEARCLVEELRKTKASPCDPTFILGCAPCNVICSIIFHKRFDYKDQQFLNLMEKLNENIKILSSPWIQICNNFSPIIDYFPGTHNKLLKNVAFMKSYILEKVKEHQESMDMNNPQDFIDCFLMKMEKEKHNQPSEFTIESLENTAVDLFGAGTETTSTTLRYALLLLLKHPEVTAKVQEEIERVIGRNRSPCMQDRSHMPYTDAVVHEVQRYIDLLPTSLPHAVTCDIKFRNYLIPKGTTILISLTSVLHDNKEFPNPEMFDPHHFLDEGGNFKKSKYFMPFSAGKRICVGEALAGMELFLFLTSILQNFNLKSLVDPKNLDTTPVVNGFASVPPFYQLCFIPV
Sequence of Cytochrome P450 2D6 (P10635 whole entry): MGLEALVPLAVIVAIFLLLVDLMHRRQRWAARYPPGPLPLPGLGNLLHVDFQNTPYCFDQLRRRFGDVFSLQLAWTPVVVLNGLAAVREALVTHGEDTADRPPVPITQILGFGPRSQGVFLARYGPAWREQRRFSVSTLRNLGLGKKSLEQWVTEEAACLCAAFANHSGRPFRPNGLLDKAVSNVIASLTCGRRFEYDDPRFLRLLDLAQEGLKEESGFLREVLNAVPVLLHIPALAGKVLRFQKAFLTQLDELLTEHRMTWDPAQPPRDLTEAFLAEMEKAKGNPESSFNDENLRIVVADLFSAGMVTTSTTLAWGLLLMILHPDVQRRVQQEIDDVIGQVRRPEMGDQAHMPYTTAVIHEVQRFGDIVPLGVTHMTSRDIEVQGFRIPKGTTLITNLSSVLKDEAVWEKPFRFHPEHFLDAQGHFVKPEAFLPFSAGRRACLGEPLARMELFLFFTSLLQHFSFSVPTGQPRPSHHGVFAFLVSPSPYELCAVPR

| SMILES | Kp [1] | K(p,uu,brain) [2] | EC50 [3] [µM] | Emax [4] [%] | CLint scaled [5] [mL/min/kg] | Fu [7] | IC50 [8] [µM] | IC50 [9] [µM] | IC50 [10] [µM] | clearance [11] [mL/min/kg] | half-life [12] [h] | Vd [13] [L/kg] | K(p,uu,brain) [14] | EC50 [15] [µM] | EC50 [16] [µM] | EC50 [17] [µM] | IC50 [18] [µM] | other results |
| --- | --- | --- | --- | --- | --- | --- | --- | --- | --- | --- | --- | --- | --- | --- | --- | --- | --- | --- |
| Cc1nnc2sc(C(=O)NCc3ccc(S(=O)(=O)C(F)F)cc3)c(N)c2c1C | 0.11 | 0.1 | 0.251 | 72.8 | 48.1 | 0.053 | > 30 | > 30 | 20.8 | 16 | 2.4 | 2.9 | 0.1 | > 30 | > 30 | > 30 | 0.6 | Fu [6]: 0.066 |
| Cc1nnc2sc(C(=O)NCc3ccc(S(F)(F)(F)(F)F)cc3)c(N)c2c1C | 1.4 | 1 | 0.55 | 66.1 | 95.9 | 0.01 | > 30 | > 30 | 23.9 | 12 | 3.6 | 3.1 | 0.75 | > 30 | > 30 | > 30 | 0.52 |  |
| Cc1nnc2sc(C(=O)NCc3ccc(S(=O)(=O)C(F)(F)F)cc3)c(N)c2c1C |  |  |  | 56.4 | 47.7 | 0.019 | > 30 | > 30 | > 30 |  |  |  | 1.1 | > 30 | > 30 | > 30 |  | fraction unbound [6]: 0.031; t1/2 [12]: 5.7 h; Vdss [13]: 3.1 L/kg |
